These results are taken from US7824745B2, “Benzochromene derivatives” (Merck Patent GmbH, priority 2005, dated 2010).

Molecules are shown by their SMILES.

The nature of series [1]: Dielectric anisotropy Δ∈ of the compounds, dissolved in a liquid-crystalline host, capacitance at 1 kHz, extrapolated to 100%. The format is physicochemical. The following applies: extrapolated from 5% solution in ZLI-2857, 20° C. An excerpt: In the present application, the term dielectrically positive compounds denotes compounds having a Δ∈ of >1.5, the term dielectrically neutral compounds denotes those in which −1.5≦Δ∈≦1.5, and the term dielectrically negative compounds denotes those having a Δ∈ of <−1.5. The […] of this mixture at 1 kHz in at least one test cell with a layer thickness of about 20 μm having a homeotropic surface alignment and at least one test cell with a layer thickness of about 20 μm having a homogeneous surface alignment. The measurement voltage is typically 0.5 V to 1.0 V, but is always less than the capacitive threshold of the respective liquid-crystal mixture. […]
(§1) All concentrations in this application, unless explicitly stated otherwise, are indicated in percent by weight and relate to the corresponding mixture as a whole. All physical properties are and have been determined in accordance with “Merck Liquid Crystals, Physical Properties of Liquid Crystals”, status November 1997, Merck KGaA, Germany, and apply to a temperature of 20° C., unless explicitly stated otherwise. An is determined at 589 nm and Δ∈ at 1 kHz.
The following examples are intended to explain the invention without limiting it. […] V10, V50 and V90 (the threshold voltage, mid-grey voltage and saturation voltage respectively) and V0 (the capacitive threshold voltage) were each determined at 20° C.

Series [2] in a line: Optical anisotropy Δn (589 nm, 20° C.), host mixture ZLI-4792. The format is physicochemical. Conditions: 5% in ZLI-4792. As to the method:
The host mixture used for determining the applicationally relevant physical parameters is ZLI-4792 from Merck KGaA, Germany. As an exception, the determination of the dielectric anisotropy of dielectrically negative compounds is carried out using ZLI-2857, likewise from Merck KGaA, Germany. The values for the respective compound to be investigated are obtained from the change in the properties, for example the dielectric constants, of the host mixture after addition of the compound to be investigated and extrapolation to 100% of the compound employed. […]
as §1
The following examples are intended to explain the invention without limiting it. Above and below, percentages are percent by weight. […] V10, V50 and V90 (the threshold voltage, mid-grey voltage and saturation voltage respectively) and V0 (the capacitive threshold voltage) were each determined at 20° C.

A word on the melting point: it is the temperature of the solid-liquid transition. In the case of `CCCC1CCc2c(c(=O)oc3cc(OCC)ccc23)C1` (stereo not drawn) [Example 1.1, 3-ethoxy-8-propyl-7,8,9,10-tetrahydrobenzo[c]chromen-6-one], the melting point turned out to be 108 °C. The “Δ∈” value in series [1] is given as −7.5. For the same compound, the Δn in series [2] was found to be 0.1302.
